Source: PMC8523698, “Preclinical characterization of an intravenous coronavirus 3CL protease inhibitor for the potential treatment of COVID19” (Nature Communications, 2021)
Where “and” joins values, the source holds several entries; their conditions need not be identical. Equal values may be shown once. Read-outs that look alike come from different tables or passages of the source.

Key:
[1] = Human blood hemocompatibility (hemolysis, flocculation)
OCT1 = molecular target: T1, OCT1 (Homo sapiens, UniProt O15245); test: Transporter inhibition using transfected HEK293 cells; type: in vitro ADME; details: IC50, [14C]Metformin (10 µM)
T1 construct: expressed in transfected cells; host or cells: HEK293
T1 sequence (O15245 1-554): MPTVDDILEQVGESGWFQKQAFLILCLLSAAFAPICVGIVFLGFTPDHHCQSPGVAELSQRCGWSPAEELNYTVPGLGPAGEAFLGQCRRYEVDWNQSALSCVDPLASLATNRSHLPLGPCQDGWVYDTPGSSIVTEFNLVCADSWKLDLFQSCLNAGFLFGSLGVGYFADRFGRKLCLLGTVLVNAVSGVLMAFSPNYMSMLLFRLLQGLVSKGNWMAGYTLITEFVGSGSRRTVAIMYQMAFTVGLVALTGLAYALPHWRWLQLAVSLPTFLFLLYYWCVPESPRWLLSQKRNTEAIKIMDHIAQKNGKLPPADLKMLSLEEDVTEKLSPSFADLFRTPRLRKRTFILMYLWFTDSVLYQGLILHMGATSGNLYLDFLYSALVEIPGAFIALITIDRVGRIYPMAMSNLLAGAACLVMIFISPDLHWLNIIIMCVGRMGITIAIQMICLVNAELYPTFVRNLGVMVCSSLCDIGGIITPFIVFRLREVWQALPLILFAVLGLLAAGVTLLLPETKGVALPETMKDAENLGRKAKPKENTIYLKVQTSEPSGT

[2] = Plasma protein binding by equilibrium dialysis; details: rat plasma, 3.44 uM; for fraction unbound at 6 h, 3.44 uM: rat, plasma
CYP2C9 = CYP2C9 (Homo sapiens, UniProt P11712); test: Reversible CYP inhibition in human liver microsomes; details: for activity at 0.01 µM / activity at 0.158 µM / activity at 0.398 µM / activity at 1 µM / activity at 15.8 µM / activity at 39.8 µM / activity at 100 µM: human, microsomes, pH 7.4, Percent of Control Activity
CYP3A4/5 = test: in vitro; details: human, microsomes, pH 7.4, Percent of Control Activity, CYP 3A4/5 (mdz)
[3] = Plasma protein binding by equilibrium dialysis; details: human plasma; for fraction unbound at 6 h, 3.44 uM / fraction unbound at 6 h: human, plasma
OAT3 = molecular target: T2, OAT3 (Homo sapiens, UniProt Q8TCC7); test: Transporter inhibition using transfected HEK293 cells; details: IC50, [3H]ES (0.1 µM)
T2 sequence (Q8TCC7 1-542): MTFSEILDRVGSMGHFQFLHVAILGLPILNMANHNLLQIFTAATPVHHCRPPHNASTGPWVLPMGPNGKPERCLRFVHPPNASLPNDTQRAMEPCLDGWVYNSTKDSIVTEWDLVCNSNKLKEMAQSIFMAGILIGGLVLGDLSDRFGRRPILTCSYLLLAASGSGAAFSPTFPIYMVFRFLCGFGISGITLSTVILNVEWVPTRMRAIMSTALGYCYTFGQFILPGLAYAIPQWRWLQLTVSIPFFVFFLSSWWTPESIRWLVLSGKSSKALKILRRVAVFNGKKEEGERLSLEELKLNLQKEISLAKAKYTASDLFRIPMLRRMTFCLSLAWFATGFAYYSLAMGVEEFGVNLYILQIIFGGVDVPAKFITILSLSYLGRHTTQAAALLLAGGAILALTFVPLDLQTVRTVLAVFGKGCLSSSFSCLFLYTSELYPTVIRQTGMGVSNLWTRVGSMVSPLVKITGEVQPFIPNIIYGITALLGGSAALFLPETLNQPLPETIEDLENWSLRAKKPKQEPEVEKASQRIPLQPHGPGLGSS

CYP2C9, sequence (P11712 whole entry): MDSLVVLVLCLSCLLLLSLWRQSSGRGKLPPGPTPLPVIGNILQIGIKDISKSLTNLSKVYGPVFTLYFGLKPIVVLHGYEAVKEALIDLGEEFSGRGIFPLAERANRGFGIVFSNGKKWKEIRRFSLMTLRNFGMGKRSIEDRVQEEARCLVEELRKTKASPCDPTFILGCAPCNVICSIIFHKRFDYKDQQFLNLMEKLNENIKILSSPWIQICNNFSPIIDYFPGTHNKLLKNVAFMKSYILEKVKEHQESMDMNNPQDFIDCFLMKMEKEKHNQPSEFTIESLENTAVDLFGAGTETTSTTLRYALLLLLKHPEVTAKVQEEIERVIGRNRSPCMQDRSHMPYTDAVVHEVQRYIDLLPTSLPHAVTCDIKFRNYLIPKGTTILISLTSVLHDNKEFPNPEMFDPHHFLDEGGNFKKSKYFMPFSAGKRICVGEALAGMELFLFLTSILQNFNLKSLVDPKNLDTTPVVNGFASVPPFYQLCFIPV

## COc1cccc2[nH]c(C(=O)N[C@@H](CC(C)C)C(=O)N[C@@H](C[C@@H]3CCNC3=O)C(=O)COP(=O)(O)O)cc12 [PF-07304814]
[1]
  hemolysis or flocculation/turbidity parameters: no effect on hemolysis or flocculation/turbidity parameters
OCT1
  IC50: > 300 µM
[2]; Sprague-Dawley, pH 7.4, fraction unbound Geomean, n=12
  fraction unbound at 6 h, 3.44 uM: 0.379
[2]; both, Sprague Dawley, pH 7.4, Individual fraction unbound, Sprague Dawley, male and female, Day 1
  fraction unbound at 6 h, 3.44 uM: 0.404
[2]; both, Sprague Dawley, pH 7.4, Individual fraction unbound, Sprague Dawley, male and female, Day 2
  fraction unbound at 6 h, 3.44 uM: 0.362
[2]; both, Sprague Dawley, pH 7.4, Individual fraction unbound, Sprague Dawley, male and female, Day 3
  fraction unbound at 6 h, 3.44 uM: 0.404
[2]; Sprague Dawley, male and female, Day 1
  Individual fraction unbound: 0.384 and 0.405 and 0.491
[2]; Sprague Dawley, male and female, Day 2
  Individual fraction unbound: 0.301 and 0.338 and 0.325
[2]; Sprague Dawley, male and female, Day 3
  Individual fraction unbound: 0.406 and 0.385 and 0.381
CYP2C9
  IC50: > 100 µM
CYP2C9; CYP 2C9, 0.01 µM, 30-Minute Preincubation, 0.01 µM
  Percent of Control Activity: 99.6% and 105.4%
CYP2C9; CYP 2C9, 0.01 µM, Zero-Minute Preincubation, 0.01 µM
  Percent of Control Activity: 102.7% and 88.8%
CYP2C9; CYP 2C9, 0.158 µM, 30-Minute Preincubation, 0.158 µM
  Percent of Control Activity: 97.3% and 103.8%
CYP2C9; CYP 2C9, 0.158 µM, Zero-Minute Preincubation, 0.158 µM
  Percent of Control Activity: 103.7% and 96.2%
CYP2C9; CYP 2C9, 0.398 µM, 30-Minute Preincubation, 0.398 µM
  Percent of Control Activity: 96.2%
CYP2C9; CYP 2C9, 0.398 µM, Zero-Minute Preincubation, 0.398 µM
  Percent of Control Activity: 103.2% and 91.4%
CYP2C9; CYP 2C9, 1 µM, 30-Minute Preincubation, 1 µM
  Percent of Control Activity: 98.0% and 100.0%
CYP2C9; CYP 2C9, 1 µM, Zero-Minute Preincubation, 1 µM
  Percent of Control Activity: 88.9%
CYP2C9; CYP 2C9, 15.8 µM, 30-Minute Preincubation, 15.8 µM
  Percent of Control Activity: 97.7% and 102.2%
CYP2C9; CYP 2C9, 15.8 µM, Zero-Minute Preincubation, 15.8 µM
  Percent of Control Activity: 104.1% and 92.6%
CYP2C9; CYP 2C9, 39.8 µM, 30-Minute Preincubation, 39.8 µM
  Percent of Control Activity: 98.6% and 102.8%
CYP2C9; CYP 2C9, 39.8 µM, Zero-Minute Preincubation, 39.8 µM
  Percent of Control Activity: 101.8% and 92.4%
CYP2C9; CYP 2C9, 100 µM, 30-Minute Preincubation, 100 µM
  Percent of Control Activity: 97.1% and 95.4%
CYP2C9; CYP 2C9, 100 µM, Zero-Minute Preincubation, 100 µM
  Percent of Control Activity: 91.7%
CYP2C9; Diclofenac 4′-hydroxylation, T30
  IC50: > 100 µM
CYP2C9; CYP 2C9, 0.01 µM, 30-Minute Preincubation
  activity at 0.01 µM: 100%
CYP2C9; CYP 2C9, 0.01 µM, Zero-Minute Preincubation
  activity at 0.01 µM: 98.2%
CYP2C9; CYP 2C9, 0.158 µM, 30-Minute Preincubation
  activity at 0.158 µM: 98.3%
CYP2C9; CYP 2C9, 0.158 µM, Zero-Minute Preincubation
  activity at 0.158 µM: 103%
CYP2C9; CYP 2C9, 0.398 µM, 30-Minute Preincubation
  activity at 0.398 µM: 106%
CYP2C9; CYP 2C9, 0.398 µM, Zero-Minute Preincubation
  activity at 0.398 µM: 102%
CYP2C9; CYP 2C9, 1 µM, 30-Minute Preincubation
  activity at 1 µM: 100%
CYP2C9; CYP 2C9, 1 µM, Zero-Minute Preincubation
  activity at 1 µM: 100%
CYP2C9; CYP 2C9, 15.8 µM, 30-Minute Preincubation
  activity at 15.8 µM: 98.8%
CYP2C9; CYP 2C9, 15.8 µM, Zero-Minute Preincubation
  activity at 15.8 µM: 106%
CYP2C9; CYP 2C9, 39.8 µM, 30-Minute Preincubation
  activity at 39.8 µM: 101%
CYP2C9; CYP 2C9, 39.8 µM, Zero-Minute Preincubation
  activity at 39.8 µM: 105%
CYP2C9; CYP 2C9, 100 µM, 30-Minute Preincubation
  activity at 100 µM: 96.5%
CYP2C9; CYP 2C9, 100 µM, Zero-Minute Preincubation
  activity at 100 µM: 101%
CYP3A4/5; 30-Minute Preincubation
  activity at 0.01 µM: 99.4%
  activity at 0.158 µM: 102%
  activity at 0.398 µM: 101%
  activity at 1 µM: 99.2%
  activity at 15.8 µM: 97.5%
  activity at 39.8 µM: 97%
  activity at 100 µM: 99.2%
CYP3A4/5; Zero-Minute Preincubation
  activity at 0.01 µM: 102%
  activity at 0.158 µM: 99.1%
  activity at 0.398 µM: 99.3%
  activity at 1 µM: 100%
  activity at 15.8 µM: 102%
  activity at 39.8 µM: 100%
  activity at 100 µM: 101%
[3]; 3.44 uM, replicates Day 1-3
  Individual fraction unbound: 0.199 and 0.194 and 0.181 and 0.192 and 0.178 and 0.182 and 0.198 and 0.168 and 0.191 and 0.180 and 0.167
[3]; pH 7.4, Fraction unbound, Geomean, 3.44 uM, n 12
  fraction unbound at 6 h, 3.44 uM: 0.184
[3]; pH 7.4, Individual fraction unbound, 3.44 uM, replicates Day 1-3
  fraction unbound at 6 h, 3.44 uM: 0.186
[3]; pH 7.4, Measured plasma fu / Human plasma fu
  fraction unbound at 6 h: 0.184
[3]; pH 7.4, Unbound fraction fu (%CV)
  fraction unbound at 6 h: 0.184
[3]; pH 7.4, fraction unbound Geomean, 3.44 uM, n=12
  fraction unbound at 6 h, 3.44 uM: 0.184
OAT3
  IC50: > 300 µM
